How the values were obtained:
Type in all cases: biochemical
[1] = biological target: platelet derived growth factor-receptor B (PDGFRB) (Homo sapiens, UniProt P09619); assay: cell-free recombinant human kinase assay
[2] = biological target: platelet derived growth factor-receptor A (PDGFRA) (Homo sapiens, UniProt P16234); assay: cell-free recombinant human kinase assay
KIT = KIT (Homo sapiens, UniProt P10721); assay: cell-free recombinant human kinase assay (also KINOMEscan binding)
Chain of KIT (P10721 26-976): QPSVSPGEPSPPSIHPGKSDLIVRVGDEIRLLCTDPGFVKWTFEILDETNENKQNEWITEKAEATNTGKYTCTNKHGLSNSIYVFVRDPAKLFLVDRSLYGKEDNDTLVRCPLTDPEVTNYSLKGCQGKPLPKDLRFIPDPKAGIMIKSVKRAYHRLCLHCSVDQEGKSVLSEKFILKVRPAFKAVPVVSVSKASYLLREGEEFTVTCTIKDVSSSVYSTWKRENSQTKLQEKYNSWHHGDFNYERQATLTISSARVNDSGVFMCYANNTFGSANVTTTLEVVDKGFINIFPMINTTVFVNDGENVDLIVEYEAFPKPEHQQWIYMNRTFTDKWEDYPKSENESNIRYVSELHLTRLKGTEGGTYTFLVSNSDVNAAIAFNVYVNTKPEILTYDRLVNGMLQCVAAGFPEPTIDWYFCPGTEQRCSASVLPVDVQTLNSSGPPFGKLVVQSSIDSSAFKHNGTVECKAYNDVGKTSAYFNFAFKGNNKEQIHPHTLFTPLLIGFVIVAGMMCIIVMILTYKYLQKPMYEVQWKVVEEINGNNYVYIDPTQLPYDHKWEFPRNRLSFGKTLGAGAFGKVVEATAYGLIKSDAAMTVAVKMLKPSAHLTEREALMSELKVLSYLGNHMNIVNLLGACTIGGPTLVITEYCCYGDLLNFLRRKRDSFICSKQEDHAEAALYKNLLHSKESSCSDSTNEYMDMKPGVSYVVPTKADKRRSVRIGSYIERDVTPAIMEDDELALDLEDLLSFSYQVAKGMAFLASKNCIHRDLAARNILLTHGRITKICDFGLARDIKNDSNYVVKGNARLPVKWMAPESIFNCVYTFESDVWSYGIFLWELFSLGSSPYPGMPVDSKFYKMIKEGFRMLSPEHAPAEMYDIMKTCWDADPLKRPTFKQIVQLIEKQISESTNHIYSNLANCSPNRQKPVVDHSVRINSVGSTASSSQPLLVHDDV

Chain of platelet derived growth factor-receptor A (PDGFRA) (P16234 24-1089): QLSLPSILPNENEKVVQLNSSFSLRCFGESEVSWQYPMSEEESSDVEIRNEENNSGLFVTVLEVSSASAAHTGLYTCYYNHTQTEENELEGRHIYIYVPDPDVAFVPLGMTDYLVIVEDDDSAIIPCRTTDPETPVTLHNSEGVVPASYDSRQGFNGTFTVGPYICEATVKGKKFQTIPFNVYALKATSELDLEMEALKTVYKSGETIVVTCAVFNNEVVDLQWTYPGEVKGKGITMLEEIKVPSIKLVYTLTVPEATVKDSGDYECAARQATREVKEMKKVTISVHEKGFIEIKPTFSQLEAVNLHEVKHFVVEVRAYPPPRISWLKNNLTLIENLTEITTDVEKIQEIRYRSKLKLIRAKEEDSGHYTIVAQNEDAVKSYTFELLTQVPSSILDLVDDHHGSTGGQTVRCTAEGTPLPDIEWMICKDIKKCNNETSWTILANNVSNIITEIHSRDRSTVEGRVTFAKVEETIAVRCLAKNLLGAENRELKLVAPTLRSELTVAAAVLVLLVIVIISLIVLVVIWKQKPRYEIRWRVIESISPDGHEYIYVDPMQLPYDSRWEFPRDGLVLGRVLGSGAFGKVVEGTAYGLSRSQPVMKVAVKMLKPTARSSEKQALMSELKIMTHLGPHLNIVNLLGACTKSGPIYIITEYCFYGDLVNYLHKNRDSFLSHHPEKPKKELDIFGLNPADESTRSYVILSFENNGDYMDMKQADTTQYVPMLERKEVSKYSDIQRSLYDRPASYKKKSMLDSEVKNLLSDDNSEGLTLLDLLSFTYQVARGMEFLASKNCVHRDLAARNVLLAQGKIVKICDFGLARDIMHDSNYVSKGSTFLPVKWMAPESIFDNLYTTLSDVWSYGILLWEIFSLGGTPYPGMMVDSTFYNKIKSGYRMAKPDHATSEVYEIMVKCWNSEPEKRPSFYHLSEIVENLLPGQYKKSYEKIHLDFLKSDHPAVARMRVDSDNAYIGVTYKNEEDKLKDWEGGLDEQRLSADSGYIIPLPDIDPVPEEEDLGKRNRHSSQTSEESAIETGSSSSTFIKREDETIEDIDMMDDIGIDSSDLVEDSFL
Chain of platelet derived growth factor-receptor B (PDGFRB) (P09619 33-1106): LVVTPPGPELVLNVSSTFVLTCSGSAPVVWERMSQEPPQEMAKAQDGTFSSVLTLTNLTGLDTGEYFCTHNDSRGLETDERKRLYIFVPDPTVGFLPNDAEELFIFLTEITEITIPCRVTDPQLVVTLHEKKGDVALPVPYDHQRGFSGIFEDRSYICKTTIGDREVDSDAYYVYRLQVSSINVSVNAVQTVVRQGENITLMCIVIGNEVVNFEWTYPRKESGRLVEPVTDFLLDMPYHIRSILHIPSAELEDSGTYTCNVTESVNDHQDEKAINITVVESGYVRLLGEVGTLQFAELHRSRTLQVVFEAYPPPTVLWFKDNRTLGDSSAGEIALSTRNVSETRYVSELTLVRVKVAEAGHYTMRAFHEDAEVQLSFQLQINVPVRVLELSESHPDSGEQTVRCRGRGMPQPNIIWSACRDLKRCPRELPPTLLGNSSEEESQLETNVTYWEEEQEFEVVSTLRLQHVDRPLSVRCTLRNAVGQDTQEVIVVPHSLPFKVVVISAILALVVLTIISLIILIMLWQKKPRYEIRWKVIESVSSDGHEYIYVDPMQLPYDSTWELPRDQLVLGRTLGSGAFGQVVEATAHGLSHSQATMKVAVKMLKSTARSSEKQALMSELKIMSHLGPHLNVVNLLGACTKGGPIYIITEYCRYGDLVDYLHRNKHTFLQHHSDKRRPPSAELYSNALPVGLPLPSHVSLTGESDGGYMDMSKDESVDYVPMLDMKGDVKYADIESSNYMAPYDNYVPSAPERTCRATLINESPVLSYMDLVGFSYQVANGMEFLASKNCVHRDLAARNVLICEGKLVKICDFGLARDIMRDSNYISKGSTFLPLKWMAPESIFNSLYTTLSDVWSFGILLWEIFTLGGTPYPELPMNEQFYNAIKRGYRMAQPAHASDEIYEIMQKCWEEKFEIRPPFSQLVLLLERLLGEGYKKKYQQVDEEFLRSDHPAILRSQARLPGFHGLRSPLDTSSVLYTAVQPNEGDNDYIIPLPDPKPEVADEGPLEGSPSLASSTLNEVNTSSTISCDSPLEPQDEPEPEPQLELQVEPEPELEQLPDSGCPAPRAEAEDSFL

IC50 [1]: 0.218 µM
IC50 [2]: 1.4 µM
IC50 (KIT): 0.002 µM
Substance: MOD000001

From publication PMC11101940, “A highly selective KIT inhibitor MOD000001 suppresses IgE-mediated mast cell activation” (The Journal of Allergy and Clinical Immunology: Global, 2024)
